Among the data in ChEMBL document CHEMBL1201862, “PubChem BioAssay data set” (2004) are IC50 values, retold here.

The source made the active and inactive calls. Cut-off read from the data, not from the text of the source: actives have a measured IC50 and inactives only a lower limit.

By IC50 is commonly meant the concentration at which inhibition is half-maximal.

Envelope glycoprotein gp160, sequence (Q6QLK5 whole entry, the tested form may be a part): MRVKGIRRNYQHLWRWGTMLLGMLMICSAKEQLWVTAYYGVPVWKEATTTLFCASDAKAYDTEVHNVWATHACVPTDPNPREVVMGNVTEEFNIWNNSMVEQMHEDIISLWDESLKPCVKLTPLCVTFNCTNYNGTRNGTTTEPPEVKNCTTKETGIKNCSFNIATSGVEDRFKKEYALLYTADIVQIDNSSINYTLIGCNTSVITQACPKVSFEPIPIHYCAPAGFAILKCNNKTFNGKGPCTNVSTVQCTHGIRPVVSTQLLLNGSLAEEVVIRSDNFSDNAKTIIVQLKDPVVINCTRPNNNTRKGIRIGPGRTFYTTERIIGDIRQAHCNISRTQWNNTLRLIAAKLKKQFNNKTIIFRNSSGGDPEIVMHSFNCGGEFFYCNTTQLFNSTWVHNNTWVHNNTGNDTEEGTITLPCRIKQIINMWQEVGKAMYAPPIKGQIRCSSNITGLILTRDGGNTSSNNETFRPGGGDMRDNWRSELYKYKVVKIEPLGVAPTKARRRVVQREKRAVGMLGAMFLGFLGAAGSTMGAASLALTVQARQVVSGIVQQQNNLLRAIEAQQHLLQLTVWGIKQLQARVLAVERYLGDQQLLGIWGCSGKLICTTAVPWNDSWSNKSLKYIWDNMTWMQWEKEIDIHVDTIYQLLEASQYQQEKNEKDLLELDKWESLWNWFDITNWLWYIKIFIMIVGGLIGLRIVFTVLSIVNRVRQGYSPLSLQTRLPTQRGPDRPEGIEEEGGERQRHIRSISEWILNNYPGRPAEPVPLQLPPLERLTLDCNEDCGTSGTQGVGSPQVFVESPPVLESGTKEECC

This assay has as its target Envelope glycoprotein gp160 (Human immunodeficiency virus 1, UniProt Q6QLK5). Kind of assay: inhibitors of HIV fusion peptide binding, primary screen, biochemical, uHTS, fluorescence dequenching (AID 1986).
Consider `CS(=O)(=O)C1=NSC2=NC(=O)/C(=C\c3ccc(OS(=O)(=O)c4ccccc4)cc3)C(=N)N21`, for which the IC50 was 18.2 µM (active). In the case of `O=C(O)CSc1ncnc2c1sc1nc(-c3ccccc3)c3c(c12)CCC3`, the half-maximal inhibitory concentration (IC50) was 28 µM (active).

Consider `COc1ccc(/N=C2\S/C(=C\c3ccc(OC(C)C(=O)O)c(OC)c3)C(=O)N2CCc2c[nH]c3ccccc23)cc1` (stereo not given), for which the half-inhibitory concentration (IC50) is 18.9 µM (active). Consider `O=C(O)COc1ccc(/C=C/C(=O)c2ccc(C3CCCCC3)cc2)cc1`, for which the IC50 was 17.7 µM (active). The value for `COc1cc(/C=C2/SC(=S)N(CC(=O)O)C2=O)ccc1OCC(=O)Nc1ccc(C)c(C)c1` was 17.9 µM (active).
